{"source": "patent US20230381160A1", "about": "“PROPHYLATIC USE OF CALCIUM CHANNEL BLOCKERS IN TUBERCULOSIS” (priority 2020, published 2023)", "system": "active TB", "assay": "Nested case-control study (NHIRD): drug use and risk of incident active TB", "assay_type": "in vivo, human", "details": "incidence of active TB", "description": "National Health Insurance (NHI) program of Taiwan is a compulsory single-payer system that enrolls approximately 24 million residents with 99.8% coverage. We conducted a nested case-control study using the National Health Insurance Research Database (NHIRD) approved from the institutional review board of National Taiwan University Hospital. The NHIRD used a systematic approach to randomly select one million people from the enrollees of NHI, which represents the age, sex, and geographical region distribution of the Taiwanese population. The computerized NHIRD includes information on patient demographics, outpatient and inpatient electronic claim records, individual diagnoses by ICD-9 CM codes, operations, and prescribed medications. Detailed information regarding the name of the prescribed drugs, route of administration, quantity, and number of days of supply are also available. The study was approved by the Institutional Review Board at National Taiwan University Hospital (No. 201311043RINB). Patients' consent was waived because this is an electronic database study using anonymous subjects.\nThe study cohort consisted of all adult patients (≥18 years old) from the NHIRD that were followed longitudinally between January 1999 and December 2011. We used 1999 as pre-enrollment periods. TB was defined as those with any code for TB according to the ICD-9 CM codes (ICD-9 CM codes: 010-018, including all subcategories). All participants in the study cohort were followed and contributed person-time from the first day of 2000 until the earliest of the following end points: first diagnosis of active TB, termination of health insurance coverage, death, or the end of the study period, whichever came first. The year before the year of TB diagnosis was used for the evaluation of the drug exposure. […]\nWe assessed the covariates from the cohort entry to the year before the index date. Covariates assessed included: demographics, pre-existing chronic diseases, medications used, and proxy indicators for the lifestyle such as alcohol consumption or smoking related illness, and obesity or malnutrition. […]"}
{"smiles": "COC(=O)C1=C(C)NC(C)=C(C(=O)OC)C1c1ccccc1[N+](=O)[O-]", "note": "[Nifedipine, nifedipine]", "values": [{"measurement": "IR % (case/person-years)", "setting": "average daily dose 10 mg", "result": "0% (0/694)"}, {"measurement": "IR % (case/person-years)", "setting": "average daily dose 20 mg", "result": "0.34% (6/1,755)"}, {"measurement": "IR % (case/person-years)", "setting": "average daily dose 30 mg", "result": "0.40% (6/1,499)"}]}
